Laboratory results: publication PMC7211195 (Investigational New Drugs, 2019)
Several values for one entry are separate records, joined by “and”; a condition that tells them apart may be missing. Equal values may be shown once.

Experiment: Lapatinib pharmacokinetics and uptake in rat brain tissue (BT);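 as to BT corr (BT homogenate corrected), single rat: brain concentration corrected for residual brain blood by the Fridén method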;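 as to BT corr (BT homogenate), single rat: brain concentration corrected for residual brain blood by the Fridén method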
Assay type: in vivo, rats
Conditions: for BT corr (BT homogenate), S / BT corr (BT homogenate), single rat: lapatinib 100 mg/kg + elacridar; for BT corr (BT homogenate corrected), single rat: lapatinib p.o. 100 mg/kg alone, 100 mg/kg
Description: This study was conducted on rats, which are a promising model to predict P-gp-based drug-drug interactions at the human BBB [15]. The animals were allowed to acclimate for one week before the beginning of the experiments. Adult male Wistar-strain rats (weight 470–525 g) were used in the study. The animals were maintained under standard breeding conditions with a 12/12 h light-dark cycle (lights on at 6.00 a.m., lights off at 6.00 p.m.) at constant room temperature (23 ± 2 °C), relative humidity (55 ± 10%) and ad libitum access to food and water. The experimental protocol for this study was reviewed and approved by the Local Ethics Committee. To obtain consistent data, the study was based on the required minimum number of animals and observation time. […] Three rats were used at each time point (n = 3). In total, the research was conducted on 66 animals (n = 33 in the experimental group and n = 33 in the control group).
Elacridar was freshly dissolved in a vehicle at an initial concentration of 20 mg/mL. […] A volume of 80 μL of blood was collected from each rat by cutting off a piece of its tail. The blood samples were collected into heparinized test tubes at the following time points: […], and they were immediately centrifuged at 2880 g for 10 min at 4 °C. The anaesthetized rats (anaesthetized by intramuscular administration of 50 mg/kg ketamine and 10 mg/kg xylazine) were prepared for cisterna magna puncture. The hair over the puncture was removed and the skin was disinfected with alcohol. The animals were placed in a recumbent position with an elevated rear part of the body. The animals’ heads were slightly flexed and immobilized with the operator’s left hand. The space between the occiput rostrally and the atlas (C1) of the spinal column caudally was gently palpated with the left thumb. A 0.7 × 20 G needle with polyethylene tubing (Terumo Poland, Warsaw, Poland) was gently inserted at an approximate angle of 80–90° through the skin with the operator’s right hand into the midsagittal region. The moment that dura mater perforation was perceptible, a small amount of CSF was found in the needle tubing. To sample additional CSF, a 1 mL insulin syringe (Becton Dickinson, Warsaw, Poland) was used to collect 80–120 μL of CSF by very gentle aspiration. Only clear CSF was collected for further analysis. […] The animals’ brains were immediately dissected, washed in 0.9% NaCl and divided along the longitudinal axis. One of the brain hemispheres was again rinsed three times with 5 mL of 0.9% NaCl, weighed and homogenized with 0.9% NaCl (4 mL per 1 g of BT) in an Ultra-Turrax homogenizer (Witko, Łódź, Poland). The homogenate was then centrifuged at 4500 g for 10 min. All samples of the rat BP, CSF, and BT homogenate supernatant were stored at −80 °C until analysis.
The chromatographic analysis was conducted using a 1260 Infinity system (Agilent Technologies, Santa Clara, USA) equipped with a Kinetex® C18 column (50 × 4.6 mm, 2.6 μm, Phenomenex, Torrance, USA), which was maintained at 35 °C. The mobile phase consisted of 0.1% formic acid (v/v) in water with 5 mM ammonium formate (solvent A) and acetonitrile with 10% phase A (v/v, solvent B). The analyte and internal standard (IS, erlotinib) were eluted using a gradient run of 10 min as follows: 95% A at 0–2 min; 95%–5% A at 2–4 min; 5% A at 4–5 min; 5%–95% A at 5–6 min; 95% A at 6–10 min. The flow rate and injection volume were set at 0.7 mL/min and 10 μL, respectively. The needle was washed for 30 s in a mixture of acetonitrile, methanol, isopropanol, water, and formic acid (50:20:15:15:0.25, v/v/v/v/v).

## CS(=O)(=O)CCNCc1ccc(-c2ccc3ncnc(Nc4ccc(OCc5cccc(F)c5)c(Cl)c4)c3c2)o1 [lapatinib, N-{3-Chloro-4-[(3-fluorobenzyl)oxy]phenyl}-6-[5-({[2-(methylsulfonyl)ethyl]amino}methyl)-2-furyl]-4-quinazolinamine]
BT
  AUC0-∞ increase by elacridar: 1.9 times
  Cmax increase in IE+L vs control: 1.55 fold and 1.5 fold
  Kp decrease in IL+E group vs control: 25%
  t0.5 longer in the presence of elacridar: 2.5 times
BT, IE+L vs IIL group
  AUC0-t increased in IE+L: 92.6%
  AUC0-∞ increase with elacridar: 86.5%
  Cmax increase with elacridar: 54.7%
Brain tissue, lapatinib 100 mg/kg oral + 5 mg/kg elacridar (IE+L), first AUMC0-t line (r32)
  AUMC0-t: 16,040.19 ± 2981.02 ng × h^2/mL
Brain tissue, lapatinib 100 mg/kg oral + 5 mg/kg elacridar (IE+L), second AUMC0-t line (r33)
  AUMC0-t: 57,148.33 ± 29,162.29 ng × h^2/mL
Brain tissue, lapatinib 100 mg/kg oral alone (IIL)
  MRT0-t: 5.73 ± 0.06 h
Brain tissue, lapatinib 100 mg/kg oral alone (IIL), first AUMC0-t line (r32)
  AUMC0-t: 4792.63 ± 173.92 ng × h^2/mL
Brain tissue, lapatinib 100 mg/kg oral alone (IIL), second AUMC0-t line (r33)
  AUMC0-t: 17,455.77 ± 17,542.73 ng × h^2/mL
0.25 h
  BT corr (BT homogenate), S: 33.08 ng/mL
  BT corr (BT homogenate), single rat: 35.46 ng/mL
  BT corr (BT homogenate corrected), single rat: 33.26 ng/mL
0.25 h, listed as Lapatinib
  BT corr (BT homogenate), single rat: 35.46 ng/mL
  BT corr (BT homogenate corrected), single rat: 33.26 ng/mL
0.5 h
  BT corr (BT homogenate), S: 43.57 ng/mL
  BT corr (BT homogenate), single rat: 41.98 ng/mL
  BT corr (BT homogenate corrected), single rat: 39.02 ng/mL
0.5 h, listed as Lapatinib
  BT corr (BT homogenate), single rat: 41.98 ng/mL
  BT corr (BT homogenate corrected), single rat: 39.02 ng/mL
2 h
  BT corr (BT homogenate), single rat: 39.78 ng/mL and 102.9 ng/mL
2 h, listed as Lapatinib
  BT corr (BT homogenate), single rat: 39.78 ng/mL and 102.90 ng/mL
3 h
  BT corr (BT homogenate), S: 197.6723 ng/mL
  BT corr (BT homogenate), single rat: 170.09 ng/mL and 225.26 ng/mL
3 h, listed as Lapatinib
  BT corr (BT homogenate), single rat: 225.26 ng/mL
4 h
  BT corr (BT homogenate), S: 85.05 ng/mL
  BT corr (BT homogenate), single rat: 91.94 ng/mL
6 h
  BT corr (BT homogenate), S: 85.7722 ng/mL
  BT corr (BT homogenate), single rat: 84.2 ng/mL
6 h, listed as Lapatinib
  BT corr (BT homogenate), single rat: 84.20 ng/mL
8 h
  BT corr (BT homogenate), S: 85.02 ng/mL
12 h
  BT corr (BT homogenate), single rat: 45.12 ng/mL
12 h, listed as Lapatinib
  BT corr (BT homogenate), single rat: 45.12 ng/mL
24 h
  BT corr (BT homogenate), S: 44.69 ng/mL
  BT corr (BT homogenate), single rat: 36.68 ng/mL
24 h, listed as Lapatinib
  BT corr (BT homogenate), single rat: 36.68 ng/mL
